Patent publication US10987293B2, “Composition for skin external application” (DR. RAYMOND LABORATORIES, INC., priority 2018, dated 2021)

Tested on: fertilized eggs of the zebrafish
Experiment: Developmental toxicity in zebrafish
Format: in vivo
Conditions: 1, 10, 100 μg/mL; 4 hours exposure; judged 24 and 48 hours after fertilization
Experimental: 4. Confirmation of Presence of Developmental Toxicity in Zebrafish
In this case, a 1% DMSO aqueous solution that was a stock solution was used as the control material.
Specifically, each of the samples was prepared at concentrations of 1, 10, and 100 μg/mL using the stock solution. After each of the samples was adjusted to these concentrations, fertilized eggs of the zebrafish were exposed to each of the samples for 4 hours. 24 hours after fertilization (20 hours after the exposure to each of the samples) and 48 hours after fertilization (44 hours after the exposure to each of the samples), it was judged whether or not the samples were toxic overall. In this case, the toxicity was evaluated based on the indicators divided into eight categories (Normal Development; Death; Coagulated Egg; Necrotic Tissue; Eye Development Alteration; Edema (Pericardial Edema); Tail Formation; and General Retardation).
That is, it was confirmed that the serinol-based compound according to the present invention had no developmental toxicity.

CCCCCCCCCCCCCCCC(=O)NC(CO)CO [palmitoyl serinol]
developmental toxicity (development of fertilized eggs): developed normally
